≈ marks a conversion by molar mass, not a printed value. Where two headings read alike, the source gives them in different places.
Columns and labels:
Type in all cases: cell-based
[1] = system: Staphylococcus aureus, MRSA (ATCC 33591); assay: Antibacterial MIC assay (microbroth dilution, CLSI); details: read-out: MIC Staphylococcus aureus, MRSA (ATCC 33591)
In short: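 Microbroth dilution per CLSI M07-A10/M100-S25 in cation-adjusted Mueller-Hinton broth, with 3% lysed horse blood added for S. pneumoniae. Inoculum from a 0.5 McFarland direct colony suspension, diluted to 5×10^5 CFU/mL in the well. Compounds were 2-fold serially diluted; MIC read against a growth control.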

[2] = system: Streptococcus pneumoniae (ATCC 49619); assay: as above
In short: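 CLSI broth microdilution: 2-fold compound dilutions in cation-adjusted Mueller-Hinton broth supplemented with 3% lysed horse blood for S. pneumoniae, inoculum 5×10^5 CFU/mL from a 0.5 McFarland direct colony suspension, with growth control.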

[3] = system: Wolbachia pipientis in C6/36 cell line; assay: Anti-Wolbachia high-content assay; details: read-out: EC50 Wolbachia pipientis in C6/36 cell line
Experimental: After 15 minutes, all media was removed from each well and fresh media (no stain) was added. Imaging of each well was accomplished using a Perkin Elmer Operetta high-content imaging system. Five fields per well were imaged using a confocal 60× objective with the Fluorescein filter (excitation filter: 460-490 nm; emission filter: 500-550 nm). Images were analyzed using the Perkin Elmer Harmony software to score each intact cell on the basis of texture complexity of the cytoplasm. Full details can be found in: […]. et al, J. Biomol.

[4] = ATCC49619, read-out: MIC Streptococcus pneumoniae (ATCC 49619)
[5] = microbroth dilution, cation-adjusted Mueller-Hinton broth, 35° C. for 16-20 hours
[6] = ATCC49619, microbroth dilution, 3% lysed horse blood, 35° C. for 16-20 hours, read-out: MIC Streptococcus pneumoniae (ATCC 49619)
[7] = C6/36 (wAlbB) cells, 7 days at 26° C., 50% reduction of Wolbachia

SMILES	MIC [1]	MIC [2, 4]	EC50 ([3]; C6/36, […])	MIC [1, 5]	MIC [2, 6]	EC50 [3, 7]
C=C[C@]1(C)C[C@@H](OC(=O)COc2ccc3c(c2Cl)B(O)OC3CNC(=O)OC(C)(C)C)[C@]2(C)[C@H](C)CC[C@]3(CCC(=O)[C@H]32)[C@@H](C)[C@@H]1O (stereo partly drawn) [Compound 30, (3aR,4R,5R,7S,8S,9R,9aS,12R)-8-hydroxy-4,7,9,12-tetramethyl-3-oxo-7-vinyldecahydro-4,9a-propanocyclopenta[8]annulen-5-yl 2-((3-(((tert-butoxycarbonyl)amino)methyl)-7-chloro-1-hydroxy-1,3-dihydrobenzo[c][1,2]oxaborol-6-yl)oxy)acetate]	0.5 to 2 µg/mL (≈ 0.742 to 2.97 µM)	4 to 32 µg/mL (≈ 5.93 to 47.5 µM)	> 1000 nM			
C=C[C@]1(C)C[C@@H](OC(=O)COc2ccc3c(c2)B(O)N(C)N=C3)[C@]2(C)[C@H](C)CC[C@]3(C[C@H](F)C(=O)[C@H]32)[C@@H](C)[C@@H]1O [Compound 84, (2S,3aR,4R,5R,7S,8S,9R,9aS,12R)-2-fluoro-8-hydroxy-4,7,9,12-tetramethyl-3-oxo-7-vinyldecahydro-4,9a-propanocyclopenta[8]annulen-5-yl 2-((1-hydroxy-2-methyl-1,2-dihydrobenzo[d][1,2,3]diazaborinin-7-yl)oxy)acetate]				0.5 to 2 µg/mL (≈ 0.902 to 3.61 µM)	0.5 to 2 µg/mL (≈ 0.902 to 3.61 µM)	78 nM
C=C[C@]1(C)C[C@@H](OC(=O)COc2ccc3c(c2F)B(O)N(S(C)(=O)=O)N=C3)[C@]2(C)[C@H](C)CC[C@]3(C[C@H](F)C(=O)[C@H]32)[C@@H](C)[C@@H]1O [Compound 76, (2S,3aR,4R,5R,7S,8S,9R,9aS,12R)-2-fluoro-8-hydroxy-4,7,9,12-tetramethyl-3-oxo-7-vinyldecahydro-4,9a-propanocyclopenta[8]annulen-5-yl 2-((8-fluoro-1-hydroxy-2-(methylsulfonyl)-1,2-dihydrobenzo[d][1,2,3]diazaborinin-7-yl)oxy)acetate]				0.5 to 2 µg/mL (≈ 0.786 to 3.14 µM)	0.5 to 2 µg/mL (≈ 0.786 to 3.14 µM)	> 1000 nM
C=C[C@]1(C)C[C@@H](OC(=O)COc2cc(CNC(=O)OC(C)(C)C)c3c(c2Cl)B(O)OC3)[C@]2(C)[C@H](C)CC[C@]3(CCC(=O)[C@H]32)[C@@H](C)[C@@H]1O [Compound 7, (3aR,4R,5R,7S,8S,9R,9aS,12R)-8-hydroxy-4,7,9,12-tetramethyl-3-oxo-7-vinyldecahydro-4,9a-propanocyclopenta[8]annulen-5-yl 2-((4-(((tert-butoxycarbonyl)amino)methyl)-7-chloro-1-hydroxy-1,3-dihydrobenzo[c][1,2]oxaborol-6-yl)oxy)acetate]	0.5 to 2 µg/mL (≈ 0.742 to 2.97 µM)	4 to 32 µg/mL (≈ 5.93 to 47.5 µM)	428 nM			
C=C[C@]1(C)C[C@@H](OC(=O)COc2ccc3c(c2)B(O)N(S(C)(=O)=O)N=C3)[C@]2(C)[C@H](C)CC[C@]3(C[C@H](F)C(=O)[C@H]32)[C@@H](C)[C@@H]1O [Compound 79, (2S,3aR,4R,5R,7S,8S,9R,9aS,12R)-2-fluoro-8-hydroxy-4,7,9,12-tetramethyl-3-oxo-7-vinyldecahydro-4,9a-propanocyclopenta[8]annulen-5-yl 2-((1-hydroxy-2-(methylsulfonyl)-1,2-dihydrobenzo[d][1,2,3]diazaborinin-7-yl)oxy)acetate]				0.5 to 2 µg/mL (≈ 0.808 to 3.23 µM)	0.5 to 2 µg/mL (≈ 0.808 to 3.23 µM)	56 nM
C=C[C@]1(C)C[C@@H](OC(=O)COc2ccc3c(c2)B(O)N(C)N=C3)[C@]2(C)[C@H](C)CC[C@]3(C[C@H](O)C(=O)[C@H]32)[C@@H](C)[C@@H]1O [Compound 82, (2S,3aR,4R,5R,7S,8S,9R,9aS,12R)-2,8-dihydroxy-4,7,9,12-tetramethyl-3-oxo-7-vinyldecahydro-4,9a-propanocyclopenta[8]annulen-5-yl 2-((1-hydroxy-2-methyl-1,2-dihydrobenzo[d][1,2,3]diazaborinin-7-yl)oxy)acetate]				0.5 to 2 µg/mL (≈ 0.905 to 3.62 µM)	< 0.25 µg/mL	36 nM
C=C[C@]1(C)C[C@@H](OC(=O)COc2cc(CN(C)C)c3c(c2)B(O)OC3)[C@]2(C)[C@H](C)CC[C@]3(CCC(=O)[C@H]32)[C@@H](C)[C@@H]1O.Cl [Compound 13, (3aR,4R,5R,7S,8S,9R,9aS,12R)-8-hydroxy-4,7,9,12-tetramethyl-3-oxo-7-vinyldecahydro-4,9a-propanocyclopenta[8]annulen-5-yl 2-((4-((dimethylamino)methyl)-1-hydroxy-1,3-dihydrobenzo[c][1,2]oxaborol-6-yl)oxy)acetate Hydrochloride]				< 0.25 µg/mL	0.5 to 2 µg/mL	81 nM
C=C[C@]1(C)C[C@@H](OC(=O)COc2ccc3c(c2)B(O)N(C(=O)OC)N=C3)[C@]2(C)[C@H](C)CC[C@]3(C[C@H](O)C(=O)[C@H]32)[C@@H](C)[C@@H]1O [Compound 90, Methyl 7-(2-(((2S,3aR,4R,5R,7S,8S,9R,9aS,12R)-2,8-dihydroxy-4,7,9,12-tetramethyl-3-oxo-7-vinyldecahydro-4,9a-propanocyclopenta[8]annulen-5-yl)oxy)-2-oxoethoxy)-1-hydroxybenzo[d][1,2,3]diazaborinine-2(1H)-carboxylate]				< 0.25 µg/mL	0.5 to 2 µg/mL (≈ 0.838 to 3.35 µM)	3 nM
C=C[C@]1(C)C[C@@H](OC(=O)COc2ccc3c(c2)B(O)OC3)[C@]2(C)[C@H](C)CC[C@]3(C[C@H](O)C(=O)[C@H]32)[C@@H](C)[C@@H]1O [Compound 35, (2S,3aR,4R,5R,7S,8S,9R,9aS,12R)-2,8-dihydroxy-4,7,9,12-tetramethyl-3-oxo-7-vinyldecahydro-4,9a-propanocyclopenta[8]annulen-5-yl 2-((1-hydroxy-1,3-dihydrobenzo[c][1,2]oxaborol-6-yl)oxy)acetate]				< 0.25 µg/mL	0.5 to 2 µg/mL (≈ 0.95 to 3.8 µM)	30 nM
C=C[C@]1(C)C[C@@H](OC(=O)NC(=O)c2ccc3c(c2)B(O)OC3)[C@]2(C)[C@H](C)CC[C@]3(CCC(=O)[C@H]32)[C@@H](C)[C@@H]1O [Compound 58, (3aR,4R,5R,7S,8S,9R,9aS,12R)-8-hydroxy-4,7,9,12-tetramethyl-3-oxo-7-vinyldecahydro-4,9a-propanocyclopenta[8]annulen-5-yl (1-hydroxy-1,3-dihydrobenzo[c][1,2]oxaborole-6-carbonyl)carbamate]				< 0.25 µg/mL	0.5 to 2 µg/mL (≈ 0.955 to 3.82 µM)	56 nM
C=C[C@]1(C)C[C@@H](OC(=O)CNc2ccc3c(c2)B(O)OC32CCNCC2)[C@]2(C)[C@H](C)CC[C@]3(CCC(=O)[C@H]32)[C@@H](C)[C@@H]1O [Compound 53, (3aR,4R,5R,7S,8S,9R,9aS,12R)-8-hydroxy-4,7,9,12-tetramethyl-3-oxo-7-vinyldecahydro-4,9a-propanocyclopenta[8]annulen-5-yl (1-hydroxy-1H-spiro[benzo[c][1,2]oxaborole-3,4′-piperidin]-6-yl)glycinate]				4 to 32 µg/mL (≈ 6.91 to 55.3 µM)	0.5 to 2 µg/mL (≈ 0.864 to 3.46 µM)	> 1000 nM
C=C[C@]1(C)C[C@@H](OC(=O)COc2cc3c(cc2F)COB3O)[C@]2(C)[C@H](C)CC[C@]3(C[C@H](F)C(=O)[C@H]32)[C@@H](C)[C@@H]1O [Compound 40, (2S,3aR,4R,5R,7S,8S,9R,9aS,12R)-2-fluoro-8-hydroxy-4,7,9,12-tetramethyl-3-oxo-7-vinyldecahydro-4,9a-propanocyclopenta[8]annulen-5-yl 2-((5-fluoro-1-hydroxy-1,3-dihydrobenzo[c][1,2]oxaborol-6-yl)oxy)acetate]				< 0.25 µg/mL	0.5 to 2 µg/mL (≈ 0.915 to 3.66 µM)	18 nM
C=C[C@]1(C)C[C@@H](OC(=O)COc2ccc3c(c2C)B(O)N(C(=O)OC)N=C3)[C@]2(C)[C@H](C)CC[C@]3(C[C@H](F)C(=O)[C@H]32)[C@@H](C)[C@@H]1O [Compound 95, Methyl 7-(2-(((2S,3aR,4R,5R,7S,8S,9R,9aS,12R)-2-fluoro-8-hydroxy-4,7,9,12-tetramethyl-3-oxo-7-vinyldecahydro-4,9a-propanocyclopenta[8]annulen-5-yl)oxy)-2-oxoethoxy)-1-hydroxy-8-methylbenzo[d][1,2,3]diazaborinine-2(1H)-carboxylate]				< 0.25 µg/mL	< 0.25 µg/mL	46 nM
C=C[C@]1(C)C[C@@H](OC(=O)COc2cnc3c(c2)B(O)OC3)[C@]2(C)[C@H](C)CC[C@]3(CCC(=O)[C@H]32)[C@@H](C)[C@@H]1O [Compound 101, (3aR,4R,5R,7S,8S,9R,9aS,12R)-8-hydroxy-4,7,9,12-tetramethyl-3-oxo-7-vinyldecahydro-4,9a-propanocyclopenta[8]annulen-5-yl 2-((1-hydroxy-1,3-dihydro-[1,2]oxaborolo[4,3-b]pyridin-6-yl)oxy)acetate]				0.5 to 2 µg/mL (≈ 0.978 to 3.91 µM)	4 to 32 µg/mL (≈ 7.82 to 62.6 µM)	> 1000 nM
C=C[C@]1(C)C[C@@H](OC(=O)COc2ccc3c(c2)B(O)ON=C3)[C@]2(C)[C@H](C)CC[C@]3(C[C@H](O)C(=O)[C@H]32)[C@@H](C)[C@@H]1O [Compound 98, (2S,3aR,4R,5R,7S,8S,9R,9aS,12R)-2,8-dihydroxy-4,7,9,12-tetramethyl-3-oxo-7-vinyldecahydro-4,9a-propanocyclopenta[8]annulen-5-yl 2-((1-hydroxy-1H-benzo[d][1,2,6]oxazaborinin-7-yl)oxy)acetate]				0.5 to 2 µg/mL (≈ 0.927 to 3.71 µM)	0.5 to 2 µg/mL (≈ 0.927 to 3.71 µM)	63 nM

From patent US10919916B2, “Boron-containing small molecules” (Bill & Melinda Gates Foundation, priority 2016, dated 2021)
